Assay [1] concerns HepG2 human hepatocarcinoma cells. Description: Rotenone ATP Assay (Complex I by-pass assay). In kind it is cell-based. On the procedure:
Example 13: Rotenone ATP Assay (a Complex I by-Pass Assay)
This assay has been adapted from Haefeli R H, Erb M, Gemperli A C, Robay D, Courdier Fruh I, et al. (2011) NQO1-Dependent Redox Cycling of Idebenone: Effects on Cellular Redox Potential and Energy Levels. PLoS ONE 6(3): e17963. HepG2 human hepatocarcinoma cells are co-incubated with the electron transport chain complex I toxin rotenone +/− compounds of interest and the corresponding effect on ATP synthesis is measured with a bioluminescent substrate.
The stock solutions of the test articles (See Table 1, below for a list of the test articles examined using this assay) were prepared in dimethyl sulfoxide (DMSO at 10 mM). Working stock solutions were prepared on the day of the experiment in glucose free, serum free Dulbecco's modified Eagles medium (DMEM) supplemented with 50 micromolar rotenone.
In brief, HepG2 cells were plated at 25,000 cells per well in low glucose (1 gram/Liter) DMEM medium+10% fetal calf serum and incubated for 24 hours. The following day, the media was decanted and subsequently replaced with glucose free/serum free DMEM which has been supplemented with 50 micromolar rotenone and compound of interest. Serial dilutions of compound were prepared in 3× dilutions beginning at 25 micromolar. The cells were incubated for 60 minutes in a humidified tissue culture incubator. Following incubation, ATP levels were quantified via bioluminescent assay (Promega […] Glo Assay kit) and readings were captured on a standard microplate reader.
ATP bioluminescence is plotted versus the log of compound of interest and data are used to generate EC50 values. Curve fitting is performed using a sigmoidal dose response curve fit function (GraphPad Prism software).
EC50 values were derived from seven-point dose response curves performed on n=3 technical replicates per dose. Robustness of curve fit was assessed as a quality control measure, with an R squared value of at least 0.80 being required for a successful curve fit. Compounds of interest showing an increase in ATP bioluminescence relative to vehicle control were verified in an independent biological replicate of n=3 technical replicates per dose.
This assay is a direct measure of the ability of compounds of interest to restore ATP production under conditions of inhibition of Complex I of the mitochondrial electron transport chain. As the majority of ATP produced via the electron transport chain is thought to derive from Complex I activity, significant impairment in Complex I function has dire biological consequences. Of note, Complex I mutations are thought to drive pathophysiology in multiple mitochondrial diseases, including Leigh syndrome and Leber's Hereditary Optic Neuropathy (LHON), while diminished Complex I activity and the resultant attenuation of ATP production has been shown in neurodegenerative diseases, including Friedreich's Ataxia, Parkinson's Disease and Huntington's Disease. In brief, most compounds were tested in the Rotenone Oxygraph Assay instead of this assay but only Idebenone was active amongst Omaveloxolone, Idebenone and Vatiquinone.

Assay [2] relates to HepG2 cells. Description: Rotenone Oxygraph Assay (high-resolution respirometry of intact HepG2 cells). The following applies: for activation at 10 µM: Homo sapiens. The assay is classed as cell-based, human. On the procedure: Example 15: Rotenone Oxygraph Assay (High-Resolution Respirometry of Intact HepG2 Cells)
The Oxygraph-2k (O2k, OROBOROS INSTRUMENTS, Austria) was used for measurements of respiration of intact cells. The respirometry was performed in Dulbecco's Modified Eagle Medium (DMEM) high glucose without supplements. All experiments were performed at 37° C.
HepG2 cells (ATCC collection code HB-8065™) were cultured in 10 cm^2 culture dishes in DMEM high glucose medium supplemented with 10% fetal bovine serum (FBS) and 100 units/mL penicillin and 100 μg/mL streptomycin until approximately 90% confluence was reached. Immediately prior to performing the respirometric assay, the cells were washed with media without FBS, trypsinized and resuspended in DMEM high glucose without FBS.
The final concentration of intact cells in the O2k-chamber was 0.5-10^6/mL. After stabilization of respiration, the Complex I inhibitor, rotenone, at 1 μM final concentration was added to inhibit electron flux via Complex I. Then, compound to be tested was added at 10 μM final concentration, and the change in respiration rate of intact cells was monitored. […]

The mark [3] stands for this setting: intact HepG2 cells, rotenone 1 μM, compound 10 μM, increase in respiration rate.

“Also recorded” adds a separate entry of the source.

Regarding `COC1=C(OC)C(=O)C(CCCCCCCCCC(F)(F)F)=C(C)C1=O` [Compound C, 2,3-dimethoxy-5-methyl-6-(10,10,10-trifluorodecyl)cyclohexa-2,5-diene-1,4-dione], the “Complex I by-pass activity in Rotenone ATP Assay (in words)” value in assay [1] was “effective in rescuing cells; also recorded: comparable to that of Idebenone”. A half-maximal response in assay [1] (Homo sapiens, 1 h, HepG2, 50 micromolar rotenone, 60 minutes, ATP bioluminescence) (EC50) required 1440 nM. For the same compound, the “Complex I by-pass activity in Rotenone Oxygraph Assay (in words)” value in assay [2] is “effective in rescuing cells”. This compound came in with an activation at 10 µM in assay [2] (setting [3]) of 63.9%.

Turning to `COC1=C(OC)C(=O)C(CCCCF)=C(C)C1=O` [Compound J, 2-(4-fluorobutyl)-5,6-dimethoxy-3-methylcyclohexa-2,5-diene-1,4-dione], in assay [1], the “Complex I by-pass activity in Rotenone ATP Assay (in words)” value was “not that effective”. Further, the “Complex I by-pass activity in Rotenone Oxygraph Assay (in words)” value in assay [2] was “not that effective; also recorded: least active”. The compound also returned an activation at 10 µM in assay [2] (setting [3]) of 21.8%.

For `CC1(C)CC[C@]2(NC(=O)C(C)(F)F)CC[C@]3(C)[C@H](C(=O)C=C4[C@@]5(C)C=C(C#N)C(=O)C(C)(C)[C@@H]5CC[C@]43C)[C@@H]2C1` [Omaveloxolone, reference compound], in assay [1], the “Complex I by-pass activity in Rotenone ATP Assay (in words)” value is “inactive”. Besides, in assay [1] (HepG2, 50 micromolar rotenone, 60 minutes, ATP bioluminescence), the “ATP Rotenone Assay EC50” value is on record as “Inactive”. In assay [2], the “Complex I by-pass activity in Rotenone Oxygraph Assay (in words)” value is “inactive”. In addition, the “Rotenone Oxygraph Assay % Increase” value in assay [2] (setting [3]) was “Inactive”.

Usually EC50 stands for the concentration that produces a half-maximal response. Low values mean greater potency, high ones weaker potency.

The record behind these values is patent US12037350B2, “Compositions and methods for the prevention and/or treatment of mitochondrial disease, including Friedreich's ataxia” (Stealth BioTherapeutics Inc., priority 2020, dated 2024).
